Structures can show the parent of a compound that is named as a salt.
Experiments:
[1] = tested on: surface protein CD184 expression in CD34+HSPCs; assay: Preliminary screening: CD184 mean fluorescence intensity by flow cytometry; format: cell-based, human; settings: 16 hours treatment, three concentrations
Protocol: (§1) According to the counting results in Example 1, 5×10^4CD34+ cells were added to each well of a 24-well plate, and the cells were cultured with 1 ml of complete medium per well for 24 hours.
(§2) The next day, the compound was dissolved in DMSO and mixed, and then diluted with PBS to a specific concentration (see Table 3). An equal volume of 10 μl of the diluted compound per well was added to the cell culture medium, mixed well, and placed in an incubator for 16 hours.
(§3) On the third day, an antibody pre-mixed solution was prepared: a solution of PBS+0.5% BSA was pre-mixed with fluorescent antibody BV510 conjugated anti-human CD34 (Biolegend clone 581), FITC conjugated anti-human CD90 (Biolegend, clone 5E10) and APCCy7 conjugated anti-human CD45RA (Biolegend, clone HI100), 50 μl/ml of each antibody was added, and stored in the dark.
(§4) Cells were collected into centrifuge tubes, centrifuged at 400 g for 5 minutes. The supernatant was removed, added with 50 μl of antibody pre-mixed solution (containing 2.5 μl of each antibody) in each sample, resuspended and incubated at 4° C. for 20 minutes in the dark. The cells were washed with 1 ml of PBS added to each tube, centrifuged at 400 g for 5 minutes and resuspended with 50 μl of PBS+0.5% BSA solution. 2.5 μl of PE-conjugated anti-CD184 antibody (Biolegend, clone 12G5) was added to each sample, incubated at 37° C. for 30 minutes, washed, and stained with 7AAD to identify cell viability. Flow cytometry (Beckman Coulter CytoFLEX) was used to detect cell surface fluorescence, and the mean fluorescence intensity (MFI) and positive ratio of CD184 expression in HSPCs and LT-HSCs were analyzed, respectively. Among them, HSPCs are CD34+ cells, and LT-HSCs are CD34+CD90+CD45RA− cells.
(1) Preliminary screening of compounds: 139 compounds were used for preliminary screening, among which 89 compounds were screened in rounds 1-5, and 50 compounds were screened in rounds 6-9. During the in vitro culture of CD34+HSPCs, they were treated for 16 hours by adding three concentrations of compounds to the complete medium. Then the mean fluorescence intensity of surface protein CD184 expression was detected by flow cytometry. 1.

[2] = tested on: surface protein CD184 expression in CD34+HSPCs; assay: Secondary screening: CD184 mean fluorescence intensity, ratio to control group; format: cell-based, human; settings: high concentration, 16 hours treatment, FIG. 2
Protocol: as §1, §2, §3, §4
(2) Secondary screening of compounds: the 13 compounds obtained from the preliminary screening were further verified using three concentrations of high, medium and low, with three replicates for each concentration. After 16 hours of treatment with the above-mentioned compounds, the average fluorescence intensity of surface protein CD184 expression was detected by flow cytometry. 2. Wherein, the data in the figure are the ratio of the mean CD184 fluorescence intensity of each group to the control group (Mock). (M344 is the positive control group; Mock is the negative control group untreated during culture.)

[3] = tested on: NPG (NOD-scid Il2rg−/−) immunodeficient mice; assay: Transplantation of treated human CD34+HSPCs into irradiated NPG mice; format: in vivo, mouse; settings: 17 weeks after transplantation; for differentiation of treated HSPCs in bone marrow, spleen and peripheral blood: FIG. 5B to 5D; for transplantation efficiency of cells in the bone marrow of NPG mice (hCD45+/(hCD45+ + mCD45+)×100%): HSPCs treated ex vivo, Mock group 64.7%
Excerpt: The transplantation efficiency of hematopoietic stem cells refers to the ability of hematopoietic stem cells from human donor to effectively migrate to the recipient's bone marrow after intravenous injection into the recipient, maintain growth in the bone marrow microenvironment, and play a role in repopulating of the hematopoietic system. To verify the transplantation efficiency of hematopoietic stem cells in the experiment, human hematopoietic stem cells are transplanted into an immune-deficient mouse model, the blood and immune organs of the recipient mice are detected by flow cytometry, and the content of human donor cells (hCD45 positive cell ratio) is analyzed.
Human CD34+HSPCs treated with Colchicine, Vinblastine sulfate or Lexibulin for a short time, or those in the control group were transplanted into NPG (NOD-scid Il2rg−/−) immunodeficient mice irradiated with 1.0 Gy, 8 mice in each group. 17 weeks after transplantation, cell transplantation efficiency in mouse bone marrow, and distribution proportion of human T cells labeled with human CD3, CD4 and CD8 antibodies, myeloid cells labeled with human CD33 antibody, B cells labeled with CD19 antibody, NK cells labeled with human CD56 antibody, and hematopoietic stem and progenitor cells labeled with human CD34 antibody in bone marrow, peripheral blood, and spleen were detected. The results are shown in FIG. 5A to FIG. 5D, where the transplantation efficiency=hCD45^+proportion/(hCD45^+proportion+mCD45^+proportion)×100%

SMILES | expression of CD184 in CD34+HSPCs (mean fluorescence intensity) [1] | expression of CD184 relative to negative control (Mock) [2] | expression of CD184 relative to positive control M344 [2] | differentiation of treated HSPCs in bone marrow, spleen and peripheral blood [3] | transplantation efficiency of cells in the bone marrow of NPG mice (hCD45+/(hCD45+ + mCD45+)×100%) [3]
O=C(Nc1ccc2[nH]nc(-c3ccncc3)c2c1)[C@@H]1CCN(CC(=O)N2CCN(c3ccc(-c4ncccn4)cc3)CC2)C1 [SCH772984] | can enhance the expression of CD184 |  |  |  | 
C/C(=C\c1ccc(C(=O)O)cc1)c1ccc2c(c1)C(C)(C)CCC2(C)C [TTNPB] | can enhance the expression of CD184 |  |  |  | 
COc1cc2c(c(OC)c1OC)-c1ccc(OC)c(=O)cc1[C@@H](NC(C)=O)CC2 [Colchicine] | can enhance the expression of CD184 | 2.6 times | comparable effects to M344 | can differentiate into T cells, myeloid cells, B cells and NK cells | 65.84%
CCC[C@H](Nc1nc(-c2ccc(NC(=O)NCC)c(OC)c2)ncc1C)c1cccnc1 [Lexibulin] | can enhance the expression of CD184 |  | ~2 times | can differentiate into T cells, myeloid cells, B cells and NK cells | 82.46%
O=C(Nc1cccc2cccnc12)c1ccc(N2C(=O)[C@@H]3[C@H](C2=O)[C@@H]2C=C[C@H]3C2)cc1 [IWR-1-endo] | can enhance the expression of CD184 |  |  |  | 
COC(=O)Nc1nc2ccc(C(=O)c3cccs3)cc2[nH]1 [Nocodazole] | can enhance the expression of CD184 |  |  |  | 
Cc1c[nH]c(-c2cnc(NCCNc3ccc(C#N)cn3)nc2-c2ccc(Cl)cc2Cl)n1 [CHIR99021] | can enhance the expression of CD184 |  |  |  | 
CC[C@]1(O)C[C@@H]2CN(CCc3c([nH]c4ccccc34)[C@@](C(=O)OC)(c3cc4c(cc3OC)N(C)[C@H]3[C@@](O)(C(=O)OC)[C@H](OC(C)=O)[C@]5(CC)C=CCN6CC[C@]43[C@@H]65)C2)C1 [Vinblastine sulfate] | can enhance the expression of CD184 |  | ~2 times | can differentiate into T cells, myeloid cells, B cells and NK cells | 80.73%
COC[C@H]1Cn2cc(-c3nc(Nc4ccnn4C)ncc3C)nc2C(=O)N1Cc1ccc(F)c(F)c1 [AZD0364] | can enhance the expression of CD184 |  |  |  | 
O=C(NC[C@H](O)CO)c1ccncc1Nc1ccc(I)cc1F [Pimasertib] | can enhance the expression of CD184 |  |  |  | 
c1cc(-c2cnn3cc(-c4ccc(N5CCNCC5)cc4)cnc23)c2cccnc2c1 [LND-212854] | can enhance the expression of CD184 |  |  |  | 
N#Cc1c(NC(=O)c2cccc3ccccc23)sc2c1CCCC2 [JNK-inhibitor IX] | can enhance the expression of CD184 |  |  |  | 

— US20240026295A1, “USE OF COMPOUND FOR IMPROVING TRANSPLANTATION EFFICIENCY OF HUMAN HEMATOPOIETIC STEM CELLS” (EDIGENE (GUANGZHOU) INC., priority 2020, published 2024)
